Reference: ChEMBL document CHEMBL3352715, “Synthesis of new verapamil analogues and their evaluation in combination with rifampicin against Mycobacterium tuberculosis and molecular docking studies in the binding site of efflux protein Rv1258c” (2014)

Experiments:
[1] = system: Mycobacterium tuberculosis; test: Inhibition of multidrug resistance efflux pump Rv1258c in Mycobacterium tuberculosis H37Rv assessed as rifampicin MIC99 by MABA method
[2] = system: Mycobacterium tuberculosis; test: Inhibition of multidrug resistance efflux pump Rv1258c in Mycobacterium tuberculosis H37Rv assessed as reduction in rifampicin MIC99 by MABA method
[3] = system: Mycobacterium tuberculosis; test: Inhibition of multidrug resistance efflux pump Rv1258c in Mycobacterium tuberculosis H37Rv assessed as potentiation of rifampicin-induced antimycobacterial activity by MABA method based Chequerboard synergy assay

Row | SMILES | MIC99 [1] | fold change (FC) [2] | fractional inhibitory concentration index (FICI) [3]
1 | COc1ccc(CCN(CCCC(C#N)(c2ccc(OC)c(OC)c2)C(C)C)C2CC2)cc1OC (centres undefined) | 4.2 nM | 2 | 0.75
2 | CCN(CCCC(C#N)(c1ccc(OC)c(OC)c1)C(C)C)CCc1ccc(OC)c(OC)c1 (centres undefined) | 8.3 nM |  | 1
3 | CCCN(CCCC(C#N)(c1ccc(OC)c(OC)c1)C(C)C)CCc1ccc(OC)c(OC)c1 (centres undefined) | 8.3 nM |  | 0.78
4 | COc1ccc(CCN(CCCC(C#N)(c2ccc(OC)c(OC)c2)C(C)C)Cc2ccccc2)cc1OC (centres undefined) | 2.1 nM | 4 | 0.3
5 | COc1ccc(N(C)CCCC(C#N)(c2ccc(OC)c(OC)c2)C(C)C)cc1OC (centres undefined) | 8.3 nM |  | 
6 | COc1ccc(CN(C)CCCC(C#N)(c2ccc(OC)c(OC)c2)C(C)C)cc1OC (centres undefined) | 8.3 nM |  | 
7 | COc1ccc(C(C#N)(CCCN2CCCCC2)C(C)C)cc1OC (centres undefined) | 4.2 nM | 2 | 1
8 | COc1ccc(C(C#N)(CCCN2CCOCC2)C(C)C)cc1OC (centres undefined) | 8.3 nM |  | 1.5
9 | COc1ccc(C(C#N)(CCCN2CCC(O)CC2)C(C)C)cc1OC (centres undefined) | 8.3 nM |  | 1.5
10 | COc1ccc(C(C#N)(CCCN2CCC(N3CCCCC3)CC2)C(C)C)cc1OC (centres undefined) | 4.2 nM | 2 | 1
11 | COc1ccc(C(C#N)(CCCN2CCC(O)(c3ccccc3)CC2)C(C)C)cc1OC (centres undefined) | 4.2 nM | 2 | 1
12 | COc1ccc(C(C#N)(CCCN2CCN(c3ccccc3)CC2)C(C)C)cc1OC (centres undefined) | 4.2 nM | 2 | 0.75
13 | COc1ccc(C(C#N)(CCCN2CCN(c3ccccn3)CC2)C(C)C)cc1OC (centres undefined) | 2.1 nM | 4 | 0.75
14 | COc1ccc(C(C#N)(CCCN2CCN(c3ccccc3F)CC2)C(C)C)cc1OC (centres undefined) | 8.3 nM |  | 1.5
15 | COc1ccc(CCN(C)CCCC(C#N)c2ccc(OC)c(OC)c2)cc1OC (centres undefined) | 4.2 nM | 2 | 1
16 | COc1ccc(CCN(C)CCCC(C)(C#N)c2ccc(OC)c(OC)c2)cc1OC (centres undefined) | 4.2 nM | 2 | 1
17 | CCC(C#N)(CCCN(C)CCc1ccc(OC)c(OC)c1)c1ccc(OC)c(OC)c1 (centres undefined) | 2.1 nM | 4 | 0.75
18 | CCCC(C#N)(CCCN(C)CCc1ccc(OC)c(OC)c1)c1ccc(OC)c(OC)c1 (centres undefined) | 2.1 nM | 4 | 0.75
19 | COc1ccc(CCN(C)CCCC(C#N)(c2ccc(OC)c(OC)c2)C2CCCC2)cc1OC (centres undefined) | 4.2 nM | 2 | 1
20 | COc1ccc(CCN(C)CCCC(C#N)(c2ccc(OC)c(OC)c2)C2CCCCC2)cc1OC (centres undefined) | 2.1 nM | 4 | 1.25
21 | COc1ccc(CCNCCCC(C#N)(c2ccc(OC)c(OC)c2)C(C)C)cc1OC (centres undefined) [NORVERAPAMIL] | 4.2 nM | 2 | 0.56
